# Like-named read-outs stand apart in the source and are kept apart here.
# Columns and labels:
# [1] = biological target: X513-OpuBC; experiment: isothermal titration calorimetry; type: binding, Thermoanaerobacter sp. X513; conditions: 25 °C, PBS, single experiment
# [2] = biological target: iAChSnFR0.4; experiment: fluorescence titration of purified sensor; type: binding, Thermoanaerobacter sp.; conditions: read-out: apparent Kd; 200 nM purified sensor
# [3] = biological target: y-iAChSnFR; conditions: 200 nM purified sensor
# [4] = biological target: iAChSnFR (iAChSnFR0.9); conditions: 200 nM soluble purified sensor
Compound,Kd ([1]; fit with fixed N = 1) [µM],Kd [2] [µM],Kd [3] [µM],Kd ([4]; read-out: apparent Kd) [µM],"Kd ([1]; variable stoichiometry fit, N = 0.55) [µM]",Kd ([4]; read-out: affinity) [µM]
CC(=O)OCC[N+](C)(C)C [acetylcholine],95,220 ± 16,0.5,1.3 ± 1,–,–
C[N+](C)(C)CCO [choline],–,–,20,45 ± 1.1,8,–
NCCc1c[nH]c2ccc(O)cc12 [serotonin],–,–,–,–,–,> 1000

# — doi:10.1101/2020.02.07.939504v1 (biorxiv, 2020)
